Reference: patent publication US10792232B2, “Methods to deliver antifibrinolytic drugs for anti-aging results” (MURDOCK TECHNOLOGIES, LLC, priority 2016, dated 2020)
Like-named read-outs stand apart in the source and are kept apart here.

Assays:
surface of the face = conditions: 1-2 ml of 10% solution applied daily to the face, over 14-21 days
Description: The present invention is based on the realization that the aging process and its physical effects on the skin and body involve the activation of a fibrinolytic process. […] The dosage of antifibrinolytic agent(s) should be less than 6 grams per day. […] A particularly advantageous manner of administration for topical delivery is by single use pre-impregnated towelettes applied to the area of the skin to be treated.

[1] = test system: mice that are bred to display skin dryness; conditions: oral, 750 mg/kg/day over 20 days; cited from earlier work
[2] = cited from earlier work
dark patches of skin = conditions: injected directly into affected area, sometimes with laser therapy, melasma patients; cited from earlier work

## NC[C@H]1CC[C@H](C(=O)O)CC1 [tranexamic acid]
Surface of the face
  lines and wrinkles: lines and wrinkles are fewer and less pronounced
  overall skin tone: improved
[1]
  effect on wrinkles caused by skin dryness: amelioration effect on wrinkles specifically caused by skin dryness
[2]; equivalent of 80 mg/kg/day
  dose shown to induce seizures: approximately 6 grams per day
[2]; in vivo
  dose shown to induce seizures: > 80 mg/kg/day
Dark patches of skin
  effect on dark patches of skin: lighten dark patches of skin
